Patent US12319666B2, “Hydrate of dimethylaminomicheliolide fumarate and preparation method therefor and use thereof” (priority 2020, dated 2025)

Assays:
[1] = background statement; cited from earlier work
[2] = cited from earlier work
[3] = Solubility in solvents (qualitative); assay type: physicochemical
[4] = Crystal particle size (scanning electron micrograph of crystal morphology); assay type: physicochemical; details: for average particle size: crystal product, SEM
Protocol: (§1) The crystal habit of the hydrate of dimethylaminomicheliolide fumarate is studied in the present disclosure, and a scanning electron micrograph thereof is shown in FIG. 3. —The crystal has a regular block crystal habit, and the surface of the particle is smooth without agglomeration, meanwhile, the crystal has a large average particle size that can reach 300 μm, a bulk density of 0.65 g/mL, and an angle of repose of 32°. The product features high bulk density and good fluidity. In comparison, the crystalline form A prepared using the natural cooling recrystallization method disclosed in patent CN103724307B has a primary particle size of 35.8 μm, a bulk density of mere 0.270 g/mL and an angle of repose of 62°, and a scanning electron micrograph thereof is shown in FIG. 4.

[5] = Angle of repose (fluidity); assay type: physicochemical; details: crystal product without auxiliary materials
Protocol: as §1
The hydrate of the present disclosure has good fluidity and is more suitable for being prepared as a medicament at a later stage. It is well known that the fluidity of an active ingredient per se is generally hard to meet the filling conditions of capsules or microcapsules, and auxiliary materials such as pregelatinized starch, silica and magnesium stearate are required to meet the requirements for fluidity by the filling conditions so as to achieve the desired quality of dosage forms and production efficiency. Taking the specification of 100 mg capsules as an example, if other forms such as crystalline form A are used as active ingredients, the weight of capsule contents reaches about 310 mg after auxiliary materials are added, and thus the largest 0 # capsule shell must be used, and larger specification such as capsules containing 200 mg of active ingredients cannot be prepared.

[6] = Bulk density of crystal product; assay type: physicochemical
Protocol: as §1

[7] = Stability of the hydrate at 45° C., humidity 75%, 30 days (XRD and purity analysis); assay type: physicochemical
Protocol: The stability of the hydrate of dimethylaminomicheliolide fumarate is investigated in the present disclosure. The […] crystal compound product is uniformly distributed in an open Petri dish. The temperature is controlled at 45° C., the humidity is 75%, and the sample thickness is less than 5 mm. The Petri dish is hermetically placed in a drier for 30 days. Then the samples placed for 7, 14 and 30 days were examined by XRD and compared with the results on day 0. […] Meanwhile, the samples at days 7, 14 and 30 are subjected to purity analysis. […] By combining the XRD patterns and the results of the purity analysis, the hydrate of dimethylaminomicheliolide fumarate is shown to have good stability.

Structure (SMILES)	average particle size [4]	angle of repose [5]	bulk density [6]	other results
CC1=C2CC[C@@](C)(O)[C@@H]2[C@H]2OC(=O)[C@@H](CN(C)C)[C@@H]2CC1 [DMAMCL, dimethylaminomicheliolide]				solubility in water [1]: improved solubility in water to a certain degree relative to MCL; stability on long-term storage ([2]; background statement): unstable
CC1=C2CC[C@@](C)(O)[C@@H]2[C@H]2OC(=O)[C@@H](CN(C)C)[C@@H]2CC1.O=C(O)/C=C/C(=O)O [Dimethylaminomicheliolide fumarate]				solubility ([3]; in cyclohexane, n-hexane, n-heptane, dichloromethane, isopropyl ether and toluene): almost insoluble; solubility ([3]; in water, methanol, ethanol, tetrahydrofuran, 1,4-dioxane, acetone, acetonitrile and isopropyl acetate): soluble
CC1=C2CC[C@@](C)(O)[C@@H]2[C@H]2OC(=O)[C@@H](CN(C)C)[C@@H]2CC1.O=C(O)/C=C/C(=O)O [Example 1, hydrate of dimethylaminomicheliolide fumarate]	≤ 300 μm	32.5 °	0.646 g/mL	
CC1=C2CC[C@@](C)(O)[C@@H]2[C@H]2OC(=O)[C@@H](CN(C)C)[C@@H]2CC1.O=C(O)/C=C/C(=O)O [Example 2, hydrate of dimethylaminomicheliolide fumarate]	≤ 300 μm	32 °	0.655 g/mL	
CC1=C2CC[C@@](C)(O)[C@@H]2[C@H]2OC(=O)[C@@H](CN(C)C)[C@@H]2CC1.O=C(O)/C=C/C(=O)O [Example 3, hydrate of dimethylaminomicheliolide fumarate]	≤ 300 μm	32 °	0.65 g/mL	
CC1=C2CC[C@@](C)(O)[C@@H]2[C@H]2OC(=O)[C@@H](CN(C)C)[C@@H]2CC1.O=C(O)/C=C/C(=O)O [Example 4, hydrate of dimethylaminomicheliolide fumarate]	≤ 300 μm	32.2 °	0.659 g/mL	
CC1=C2CC[C@@](C)(O)[C@@H]2[C@H]2OC(=O)[C@@H](CN(C)C)[C@@H]2CC1.O=C(O)/C=C/C(=O)O [Example 5, hydrate of dimethylaminomicheliolide fumarate]	≤ 300 μm	32 °	0.645 g/mL	
CC1=C2CC[C@@](C)(O)[C@@H]2[C@H]2OC(=O)[C@@H](CN(C)C)[C@@H]2CC1.O=C(O)/C=C/C(=O)O [Example 6, hydrate of dimethylaminomicheliolide fumarate]	≤ 300 μm	32.3 °	0.65 g/mL	
CC1=C2CC[C@@](C)(O)[C@@H]2[C@H]2OC(=O)[C@@H](CN(C)C)[C@@H]2CC1.O=C(O)/C=C/C(=O)O [Example 7, hydrate of dimethylaminomicheliolide fumarate]	≤ 300 μm	32 °	0.65 g/mL	
CC1=C2CC[C@@](C)(O)[C@@H]2[C@H]2OC(=O)[C@@H](CN(C)C)[C@@H]2CC1.O=C(O)/C=C/C(=O)O [Example 8, hydrate of dimethylaminomicheliolide fumarate]	≤ 300 μm	32.1 °	0.654 g/mL	
CC1=C2CC[C@@](C)(O)[C@@H]2[C@H]2OC(=O)[C@@H](CN(C)C)[C@@H]2CC1.O=C(O)/C=C/C(=O)O [Example 9, hydrate of dimethylaminomicheliolide fumarate]	≤ 300 μm	32.3 °	0.645 g/mL	
CC1=C2CC[C@@](C)(O)[C@@H]2[C@H]2OC(=O)[C@@H](CN(C)C)[C@@H]2CC1.O=C(O)/C=C/C(=O)O [crystalline form A, dimethylaminomicheliolide fumarate]		62 °	0.270 g/mL	primary particle size ([4]; form A from natural cooling recrystallization, method of CN103724307B): 35.8 μm; stability of the crystalline form ([2]; prone to transformation): poor stability
CC1=C2CC[C@@](C)(O)[C@@H]2[C@H]2OC(=O)[C@@H](CN(C)C)[C@@H]2CC1.O=C(O)/C=C/C(=O)O [hydrate of dimethylaminomicheliolide fumarate]	≤ 300 μm	32 °	0.65 g/mL	change in purity vs day 0 ([7]; day 7): 0.015%; change in purity vs day 0 ([7]; day 14): 0.027%; change in purity vs day 0 ([7]; day 30): 0.046%; change in the XRD pattern ([7]; days 7, 14 and 30 vs day 0): no significant change; angle of repose ([5]; listed as hydrate of dimethylaminomicheliolide fumarate in the crystalline form D): 32 °
C=C1C(=O)O[C@H]2[C@H]1CCC(C)=C1CC[C@@](C)(O)[C@@H]12 [micheliolide]				solubility in water [1]: poor solubility in water
